From patent US12077503B2, “Substituted cyclic amides and their use as herbicides” (FMC CORPORATION, priority 2015, dated 2024)

Tests used:
Assay type in all cases: in vivo
[1] = system: barnyardgrass (Echinochloa crus-galli); test: Test G Pre-Emergence Protocol; conditions: Echinochloa crus-galli, pre-emergence, 312 h, evaluated after 13 days; for pest or weed control at 15.625 g/ha: 15.625 g ai/ha; for pest or weed control at 15.625 g/ha / pest or weed control at 250 g/ha: read-out: Barnyardgrass damage rating (100=total damage to plant; 0=no damage to plant); for pest or weed control at 62.5 g/ha: 62.5 g ai/ha, 100=total damage to plant, 0=no damage to plant, read-out: Barnyardgrass damage rating; for pest or weed control at 250 g/ha: 250 g ai/ha
Method in brief: (§1)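 Seeds were sown in standard soil and kept one day in a glasshouse (24/16° C day/night, 14 h light, 65% humidity), then sprayed with compound in acetone/water (50:50) containing 0.5% Tween 20 at 15.625, 62.5 or 250 g/ha. Damage was scored after 13 days (0 = none, 100 = total).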

corn (Zea mays) [2] = test: Test G Pre-Emergence Protocol; conditions: Zea mays, pre-emergence, 312 h, evaluated after 13 days; for plant injury at 15.625 g/ha: 15.625 g ai/ha; for plant injury at 15.625 g/ha / plant injury at 250 g/ha: read-out: Corn damage rating (100=total damage to plant; 0=no damage to plant); for plant injury at 62.5 g/ha: 62.5 g ai/ha, 100=total damage to plant, 0=no damage to plant, read-out: Corn damage rating; for plant injury at 250 g/ha: 250 g ai/ha
Method in brief: as §1

[3] = system: giant foxtail (Setaria faberi); test: Test G Pre-Emergence Protocol; conditions: Setaria faberi, pre-emergence, 312 h, evaluated after 13 days; for pest or weed control at 15.625 g/ha: 15.625 g ai/ha; for pest or weed control at 15.625 g/ha / pest or weed control at 250 g/ha: read-out: Foxtail, Giant damage rating (100=total damage to plant; 0=no damage to plant); for pest or weed control at 62.5 g/ha: 62.5 g ai/ha, 100=total damage to plant, 0=no damage to plant, read-out: Foxtail, Giant damage rating; for pest or weed control at 250 g/ha: 250 g ai/ha
Method in brief: as §1

[4] = system: ivy-leaved morning glory (Ipomoea hederacea); test: Test G Pre-Emergence Protocol; conditions: Ipomoea, pre-emergence, 312 h, evaluated after 13 days; for pest or weed control at 15.625 g/ha: 15.625 g ai/ha; for pest or weed control at 15.625 g/ha / pest or weed control at 250 g/ha: read-out: Morningglory, Ivy-leaved damage rating (100=total damage to plant; 0=no damage to plant); for pest or weed control at 62.5 g/ha: 62.5 g ai/ha, 100=total damage to plant, 0=no damage to plant, read-out: Morningglory, Ivy-leaved damage rating; for pest or weed control at 250 g/ha: 250 g ai/ha
Method in brief: as §1

[5] = system: redroot pigweed (Amaranthus retroflexus); test: Test G Pre-Emergence Protocol; conditions: Amaranthus retroflexus, pre-emergence, 312 h, evaluated after 13 days; for pest or weed control at 15.625 g/ha: 15.625 g ai/ha; for pest or weed control at 15.625 g/ha / pest or weed control at 250 g/ha: read-out: Pigweed, Redroot damage rating (100=total damage to plant; 0=no damage to plant); for pest or weed control at 62.5 g/ha: 62.5 g ai/ha, 100=total damage to plant, 0=no damage to plant, read-out: Pigweed, Redroot damage rating; for pest or weed control at 250 g/ha: 250 g ai/ha
Method in brief: as §1

[6] = system: velvetleaf (Abutilon theophrasti); test: Test G Pre-Emergence Protocol; conditions: Abutilon theophrasti, pre-emergence, 312 h, evaluated after 13 days; for pest or weed control at 15.625 g/ha: 15.625 g ai/ha; for pest or weed control at 15.625 g/ha / pest or weed control at 250 g/ha: read-out: Velvetleaf damage rating (100=total damage to plant; 0=no damage to plant); for pest or weed control at 62.5 g/ha: 62.5 g ai/ha, 100=total damage to plant, 0=no damage to plant, read-out: Velvetleaf damage rating; for pest or weed control at 250 g/ha: 250 g ai/ha
Method in brief: as §1

[7] = system: barnyardgrass (Echinochloa crus-galli); test: Test G Post-Emergence Protocol; conditions: Echinochloa crus-galli, post-emergence, 312 h, read-out: Barnyardgrass damage rating; for pest or weed control at 15.625 g/ha: 15.625 g ai/ha, evaluated after 13 days (100=total damage to plant; 0=no damage to plant); for pest or weed control at 62.5 g/ha: 62.5 g ai/ha; for pest or weed control at 62.5 g/ha / pest or weed control at 250 g/ha: evaluated after 13 days, 100=total damage to plant, 0=no damage to plant; for pest or weed control at 250 g/ha: 250 g ai/ha
Method in brief: (§2)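 Eight days post-sowing, plants received a spray of test compound (acetone/water 50:50, 0.5% Tween 20) at 15.625, 62.5 or 250 g/ha. Glasshouse regime thereafter: 24/16 °C, 14 h light, 65% humidity. Assessment after 13 days on a 0–100 damage scale.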

corn (Zea mays) [8] = test: Test G Post-Emergence Protocol; conditions: Zea mays, post-emergence, 312 h, read-out: Corn damage rating; for plant injury at 15.625 g/ha: 15.625 g ai/ha, evaluated after 13 days (100=total damage to plant; 0=no damage to plant); for plant injury at 62.5 g/ha: 62.5 g ai/ha; for plant injury at 62.5 g/ha / plant injury at 250 g/ha: evaluated after 13 days, 100=total damage to plant, 0=no damage to plant; for plant injury at 250 g/ha: 250 g ai/ha
Method in brief: as §2

[9] = system: giant foxtail (Setaria faberi); test: Test G Post-Emergence Protocol; conditions: Setaria faberi, post-emergence, 312 h, read-out: Foxtail, Giant damage rating; for pest or weed control at 15.625 g/ha: 15.625 g ai/ha, evaluated after 13 days (100=total damage to plant; 0=no damage to plant); for pest or weed control at 62.5 g/ha: 62.5 g ai/ha
Method in brief: as §2

[10] = system: ivy-leaved morning glory (Ipomoea hederacea); test: Test G Post-Emergence Protocol; conditions: Ipomoea, post-emergence, 312 h, read-out: Morningglory, Ivy-leaved damage rating; for pest or weed control at 15.625 g/ha: 15.625 g ai/ha, evaluated after 13 days (100=total damage to plant; 0=no damage to plant); for pest or weed control at 62.5 g/ha: 62.5 g ai/ha; for pest or weed control at 62.5 g/ha / pest or weed control at 250 g/ha: evaluated after 13 days, 100=total damage to plant, 0=no damage to plant; for pest or weed control at 250 g/ha: 250 g ai/ha
Method in brief: as §2

[11] = system: redroot pigweed (Amaranthus retroflexus); test: Test G Post-Emergence Protocol; conditions: Amaranthus retroflexus, post-emergence, 312 h, read-out: Pigweed, Redroot damage rating; for pest or weed control at 15.625 g/ha: 15.625 g ai/ha, evaluated after 13 days (100=total damage to plant; 0=no damage to plant); for pest or weed control at 62.5 g/ha: 62.5 g ai/ha; for pest or weed control at 62.5 g/ha / pest or weed control at 250 g/ha: evaluated after 13 days, 100=total damage to plant, 0=no damage to plant; for pest or weed control at 250 g/ha: 250 g ai/ha
Method in brief: as §2

[12] = system: velvetleaf (Abutilon theophrasti); test: Test G Post-Emergence Protocol; conditions: Abutilon theophrasti, post-emergence, 312 h, read-out: Velvetleaf damage rating; for pest or weed control at 15.625 g/ha: 15.625 g ai/ha, evaluated after 13 days (100=total damage to plant; 0=no damage to plant); for pest or weed control at 62.5 g/ha: 62.5 g ai/ha; for pest or weed control at 62.5 g/ha / pest or weed control at 250 g/ha: evaluated after 13 days, 100=total damage to plant, 0=no damage to plant; for pest or weed control at 250 g/ha: 250 g ai/ha
Method in brief: as §2

[13] = evaluated after 13 days, 100=total damage to plant, 0=no damage to plant

CN1C[C@H](c2cc(F)cc(F)c2)[C@@H](C(=O)Nc2cnccc2C(F)(F)F)C1=O (racemic) [Compound 1741]
pest or weed control at 15.625 g/ha [1]: 0% | pest or weed control at 62.5 g/ha [1]: 40% | pest or weed control at 250 g/ha [1]: 70% | plant injury at 15.625 g/ha (corn (Zea mays) [2]): 0% | plant injury at 62.5 g/ha (corn (Zea mays) [2]): 10% | plant injury at 250 g/ha (corn (Zea mays) [2]): 30% | pest or weed control at 15.625 g/ha [3]: 0% | pest or weed control at 62.5 g/ha [3]: 90% | pest or weed control at 250 g/ha [3]: 90% | pest or weed control at 15.625 g/ha [4]: 0% | pest or weed control at 62.5 g/ha [4]: 0% | pest or weed control at 250 g/ha [4]: 0% | pest or weed control at 15.625 g/ha [5]: 10% | pest or weed control at 62.5 g/ha [5]: 20% | pest or weed control at 250 g/ha [5]: 30% | pest or weed control at 15.625 g/ha [6]: 0% | pest or weed control at 62.5 g/ha [6]: 30% | pest or weed control at 250 g/ha [6]: 60% | pest or weed control at 15.625 g/ha [7]: 0% | pest or weed control at 62.5 g/ha [7]: 0% | pest or weed control at 250 g/ha [7]: 70% | plant injury at 15.625 g/ha (corn (Zea mays) [8]): 0% | plant injury at 62.5 g/ha (corn (Zea mays) [8]): 0% | plant injury at 250 g/ha (corn (Zea mays) [8]): 0% | pest or weed control at 15.625 g/ha [9]: 50% | pest or weed control at 62.5 g/ha [9, 13]: 80% | pest or weed control at 15.625 g/ha [10]: 0% | pest or weed control at 62.5 g/ha [10]: 30% | pest or weed control at 250 g/ha [10]: 10% | pest or weed control at 15.625 g/ha [11]: 0% | pest or weed control at 62.5 g/ha [11]: 0% | pest or weed control at 250 g/ha [11]: 0% | pest or weed control at 15.625 g/ha [12]: 0% | pest or weed control at 62.5 g/ha [12]: 0% | pest or weed control at 250 g/ha [12]: 10%

CN1C[C@H](c2cccc(C(F)(F)F)c2)[C@@H](C(=O)Nc2cnccc2F)C1=O (racemic) [Compound 1745]
pest or weed control at 15.625 g/ha [1]: 0% | pest or weed control at 62.5 g/ha [1]: 0% | pest or weed control at 250 g/ha [1]: 60% | plant injury at 15.625 g/ha (corn (Zea mays) [2]): 0% | plant injury at 62.5 g/ha (corn (Zea mays) [2]): 0% | plant injury at 250 g/ha (corn (Zea mays) [2]): 0% | pest or weed control at 15.625 g/ha [3]: 0% | pest or weed control at 62.5 g/ha [3]: 10% | pest or weed control at 250 g/ha [3]: 50% | pest or weed control at 15.625 g/ha [4]: 0% | pest or weed control at 62.5 g/ha [4]: 0% | pest or weed control at 250 g/ha [4]: 10% | pest or weed control at 15.625 g/ha [5]: 0% | pest or weed control at 62.5 g/ha [5]: 0% | pest or weed control at 250 g/ha [5]: 20% | pest or weed control at 15.625 g/ha [6]: 0% | pest or weed control at 62.5 g/ha [6]: 0% | pest or weed control at 250 g/ha [6]: 0% | pest or weed control at 15.625 g/ha [7]: 10% | pest or weed control at 62.5 g/ha [7]: 70% | pest or weed control at 250 g/ha [7]: 80% | plant injury at 15.625 g/ha (corn (Zea mays) [8]): 0% | plant injury at 62.5 g/ha (corn (Zea mays) [8]): 0% | plant injury at 250 g/ha (corn (Zea mays) [8]): 0% | pest or weed control at 15.625 g/ha [9]: 10% | pest or weed control at 62.5 g/ha [9, 13]: 60% | pest or weed control at 250 g/ha ([9]; 250 g ai/ha, evaluated after 13 days, 100=total damage to plant, 0=no damage to plant): 70% | pest or weed control at 15.625 g/ha [10]: 0% | pest or weed control at 62.5 g/ha [10]: 30% | pest or weed control at 250 g/ha [10]: 40% | pest or weed control at 15.625 g/ha [11]: 0% | pest or weed control at 62.5 g/ha [11]: 0% | pest or weed control at 250 g/ha [11]: 20% | pest or weed control at 15.625 g/ha [12]: 0% | pest or weed control at 62.5 g/ha [12]: 0% | pest or weed control at 250 g/ha [12]: 0%
